Measured values published in patent US20090048260A1, “Use of pyrrolopyrazine derivatives for the production of medicaments for the treatment of mucoviscidosis and diseases related to protein addressing errors in cells” (priority 2004, published 2009).
Where “and” joins values, the source holds several entries; their conditions need not be identical. Equal values may be shown once. Blank lines part the entries; values can stand above or below the compound they belong to.

Columns and labels:
[1] = biological target: T1, delF508-CFTR (Homo sapiens, UniProt P13569, DEL508-508); test: iodide efflux, targeting (retargeting) of delF508-CFTR in CF15 cells; format: cell-based; conditions: for effect of known CFTR inhibitors on delF508 transport after treatment with aloisine A: CF15 cells treated with aloisine A
T1 construct: endogenous in cells; host or cells: CF15 (homozygous delF508)
T1 sequence (P13569 with tags, fused parts or gaps DEL508-508): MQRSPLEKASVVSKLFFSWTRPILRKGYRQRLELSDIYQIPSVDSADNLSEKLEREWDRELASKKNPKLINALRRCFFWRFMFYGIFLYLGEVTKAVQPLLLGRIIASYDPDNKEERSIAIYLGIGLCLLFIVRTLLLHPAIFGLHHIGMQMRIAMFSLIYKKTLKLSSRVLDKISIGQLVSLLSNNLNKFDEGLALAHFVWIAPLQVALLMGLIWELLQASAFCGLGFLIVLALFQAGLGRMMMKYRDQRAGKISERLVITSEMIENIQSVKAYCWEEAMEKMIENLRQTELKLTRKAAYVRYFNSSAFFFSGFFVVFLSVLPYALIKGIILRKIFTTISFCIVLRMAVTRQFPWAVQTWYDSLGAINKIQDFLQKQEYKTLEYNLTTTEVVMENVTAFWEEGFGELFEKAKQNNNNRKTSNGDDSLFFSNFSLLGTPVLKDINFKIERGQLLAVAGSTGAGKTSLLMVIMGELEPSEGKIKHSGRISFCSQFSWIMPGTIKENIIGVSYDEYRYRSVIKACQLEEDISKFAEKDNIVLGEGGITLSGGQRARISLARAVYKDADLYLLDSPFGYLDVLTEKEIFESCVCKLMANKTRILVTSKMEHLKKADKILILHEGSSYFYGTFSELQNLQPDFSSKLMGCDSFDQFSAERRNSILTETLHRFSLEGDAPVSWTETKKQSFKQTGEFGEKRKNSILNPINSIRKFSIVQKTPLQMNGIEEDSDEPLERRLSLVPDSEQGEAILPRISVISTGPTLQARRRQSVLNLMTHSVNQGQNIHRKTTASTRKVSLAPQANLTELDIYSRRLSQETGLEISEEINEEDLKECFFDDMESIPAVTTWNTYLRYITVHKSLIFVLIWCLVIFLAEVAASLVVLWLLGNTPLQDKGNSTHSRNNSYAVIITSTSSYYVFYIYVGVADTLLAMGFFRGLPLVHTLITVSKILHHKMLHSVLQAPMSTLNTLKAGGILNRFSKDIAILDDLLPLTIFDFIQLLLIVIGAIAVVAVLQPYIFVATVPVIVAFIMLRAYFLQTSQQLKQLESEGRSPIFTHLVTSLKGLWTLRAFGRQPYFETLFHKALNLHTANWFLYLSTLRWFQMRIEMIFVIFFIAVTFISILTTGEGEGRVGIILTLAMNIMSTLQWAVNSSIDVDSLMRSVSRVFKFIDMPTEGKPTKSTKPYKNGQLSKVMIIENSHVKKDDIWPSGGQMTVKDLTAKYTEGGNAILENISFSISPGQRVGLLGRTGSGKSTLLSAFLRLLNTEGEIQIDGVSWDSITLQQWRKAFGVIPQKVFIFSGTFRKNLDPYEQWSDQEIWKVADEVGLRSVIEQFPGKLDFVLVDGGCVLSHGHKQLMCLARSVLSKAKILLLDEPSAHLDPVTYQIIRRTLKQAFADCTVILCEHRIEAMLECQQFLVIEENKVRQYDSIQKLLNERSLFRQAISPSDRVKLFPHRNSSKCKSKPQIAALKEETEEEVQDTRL
Method: (§1) CF15 cells: CF15 cells are human epithelial cells of nasal origin which express the Δ508-CFTR gene.
Next, the quantity of radiotracer which leaves the cell is counted after the addition of various pharmacological agents.
The cells are cultured on 24-well plates in a suitable medium. […] The iodide equilibrates on either side of the cell membrane. A robot (MultiPROBE, Packard) carries out the following steps: the loading medium is rinsed with efflux medium in order to remove the extracellular radioactivity. The supernatant is collected every minute in hemolysis tubes and the medium is replaced with an equivalent volume (500 μl). The samples collected for the first 3 minutes are not supplemented with drug, they make it possible to obtain a stable baseline, characterizing the passive outflow of the I ions. The next 7 samples are obtained in the presence of the molecule to be tested. At the end of the experiment, the cells are lyzed by adding 500 μl of NaOH (0.1 N)/0.1% SDS (30 min), thus, the radioactivity which remained inside the cell may be determined. The radioactivity present in the hemolysis tubes is counted as counts per minute (cpm) using a gamma counter (Cobra II, Packard). The results in cpm are expressed in the form of rate of radioactive iodide outflow (R) according to the following formula: […]
This iodide flow is represented in the form of a curve. In order to quantify the outflow of iodide due to the administration of the molecule tested, the following relative flow is calculated which makes it possible to dispense with the basic flow: relative rate (min^−1)=Rpeak−Rbasal. […] The results are presented in the form of a mean+/−SEM. The student's statistical test is used to compare the effect of the drugs to the controls (the values corresponding to P<0.01 are considered as statistically significant).
The study of the targeting of the delF508-CFTR protein was carried out by combining pharmacological and cell imaging approaches, and biochemical and electrophysiological tests on […] human epithelial cells CF15 homozygous for the delF508 deletion.
For each experiment, the addition of a cocktail (10 μM forskolin+30 μM genistein) allows the activation of CFTR when it is attached to the membrane. Thus, an iodide efflux can be observed if the targeting of delF508 has been restored.

[2] = biological target: T1, delF508-CFTR; test: iodide efflux, activation of delF508 in CF15 cells after incubation at 27° C.; format: cell-based
Method: as §1
(§2) the measurements of chloride ion transport in the cells was carried out with the aid of the radioactive iodide efflux technique (Becq et al., 1999; Dormer et al., 2001). The tracer (^125I) is incorporated into the intracellular medium. Next, the quantity of radiotracer which leaves the cell is counted after the addition of various pharmacological agents. Iodide is used as a tracer for the transport of chloride ions. ^125I further has the advantage of having a short life compared with that of other markers such as ^35Cl (respective ½ life: […] and 300000 years).
(§3) The cells are cultured on 24-well plates in a suitable medium. 2 rinses with efflux medium (NaCl: 136.6 mM, KCl: 5.4 mM, KH2PO4: 0.3 mM, NaH2PO4: 0.3 mM, NaHCO3: 4.2 mM, CaCl2: 1.3 mM, MgCl2: 0.5 mm, MgSO4: 0.4 mM, HEPES: 10 mM, D-glucose: 5.6 mM) are carried out in order to remove the dead cells which release the radioactivity anarchically. […] A robot (MultiPROBE, Packard) carries out the following steps: the loading medium is rinsed with efflux medium in order to remove the extracellular radioactivity. […] At the end of the experiment, the cells are lyzed by adding 500 μl of NaOH (0.1 N)/0.1% SDS (30 min), thus, the radioactivity which remained inside the cell may be determined. […]

[3] = system: CHO-WT cells; test: MTT cytotoxicity test; format: cell-based, Chinese Hamster; conditions: various concentrations
Method: The test of toxicity to MTT is a […] test which is based on capacity of mitochondrial dehydrogenases to metabolize MTT (yellow tetrazolium salt) to formazan (purple). The absorbance, which is proportional to the concentration of dye converted, can then be measured by spectrophotometry. […] 3 controls are prepared: 100% living cells: cells without agent; 0% living cells: cells left in the open air; blank: medium without cells. […] Next, they are incubated for 4 h with 100 μl of RPMI solution supplemented with MTT (0.5 mg/ml). The medium is then removed, the addition of 100 μl of DMSO makes it possible to solubilize the dye converted (formazan). The absorbance is measured by spectrophotometry at 570 nm (purple); 630 nm (background). In order to eliminate the background, the following calculation is carried out: DOreal=DO570nm−DO630nm. Next, the results are normalized with respect to the controls (100% and 0% of living cells) and are presented in the form of mean+/−SEM.

[4] = in vivo
[5] = biological target: T1, delF508-CFTR; test: immunolocalization of delF508-CFTR in CF15 cells (confocal imaging); format: cell-based; conditions: 100 μM aloisine A
Method: Immunolabeling makes it possible to reveal the cellular location of the CFTR protein using a primary anti-CFTR antibody (Ab), and then a secondary antibody anti-primary antibody labeled with the fluorophore Cy3.
The cells are inoculated beforehand on cover glass in appropriate culture medium. 3 washes with TBS (NaCl: 157 mM, Tris base: […], pH 7.4) of 5 min each are performed. The cells are then fixed by addition of TBS-paraformaldehyde (3%) for 20 min. After 3 washes with TBS (5 min), the cells are incubated with TBS-triton 0.1% (10 min) which allows the formation of holes in the cell membrane and then 3 washes with TBS are again carried out before bringing the cells into contact with TBS-BSA 0.5%-saponin 0.05% for 1 h. The cells are then incubated with the anti-C-terminal CFTR primary antibody (2 μg/ml) for 1 h. 3 washes with TBS-BSA-saponin of 5 min each are carried out before the incubation with the secondary antibody GAM-cy3 (1/400) for 1 h. Following 2 washes with TBS of 5 min, the nuclei are labeled by incubating with Topro3 (1/1000) for 5 min. Next, the cover glass may be mounted on the slide after 3 final washes with TBS of 5 min. […] In order to distinguish between the Cy3 and Topro3 labeling, the fluorescence color of Topro3 was changed to blue (color of the nuclei).

[6] = biological target: T2, G551D-CFTR (Homo sapiens, UniProt P13569, G551D); test: iodide efflux, activation of G551D-CFTR in CHO cells; format: cell-based; conditions: CHO cell
T2 construct: expressed in transfected cells; host or cells: CHO cells
T2 sequence (P13569 whole entry G551D): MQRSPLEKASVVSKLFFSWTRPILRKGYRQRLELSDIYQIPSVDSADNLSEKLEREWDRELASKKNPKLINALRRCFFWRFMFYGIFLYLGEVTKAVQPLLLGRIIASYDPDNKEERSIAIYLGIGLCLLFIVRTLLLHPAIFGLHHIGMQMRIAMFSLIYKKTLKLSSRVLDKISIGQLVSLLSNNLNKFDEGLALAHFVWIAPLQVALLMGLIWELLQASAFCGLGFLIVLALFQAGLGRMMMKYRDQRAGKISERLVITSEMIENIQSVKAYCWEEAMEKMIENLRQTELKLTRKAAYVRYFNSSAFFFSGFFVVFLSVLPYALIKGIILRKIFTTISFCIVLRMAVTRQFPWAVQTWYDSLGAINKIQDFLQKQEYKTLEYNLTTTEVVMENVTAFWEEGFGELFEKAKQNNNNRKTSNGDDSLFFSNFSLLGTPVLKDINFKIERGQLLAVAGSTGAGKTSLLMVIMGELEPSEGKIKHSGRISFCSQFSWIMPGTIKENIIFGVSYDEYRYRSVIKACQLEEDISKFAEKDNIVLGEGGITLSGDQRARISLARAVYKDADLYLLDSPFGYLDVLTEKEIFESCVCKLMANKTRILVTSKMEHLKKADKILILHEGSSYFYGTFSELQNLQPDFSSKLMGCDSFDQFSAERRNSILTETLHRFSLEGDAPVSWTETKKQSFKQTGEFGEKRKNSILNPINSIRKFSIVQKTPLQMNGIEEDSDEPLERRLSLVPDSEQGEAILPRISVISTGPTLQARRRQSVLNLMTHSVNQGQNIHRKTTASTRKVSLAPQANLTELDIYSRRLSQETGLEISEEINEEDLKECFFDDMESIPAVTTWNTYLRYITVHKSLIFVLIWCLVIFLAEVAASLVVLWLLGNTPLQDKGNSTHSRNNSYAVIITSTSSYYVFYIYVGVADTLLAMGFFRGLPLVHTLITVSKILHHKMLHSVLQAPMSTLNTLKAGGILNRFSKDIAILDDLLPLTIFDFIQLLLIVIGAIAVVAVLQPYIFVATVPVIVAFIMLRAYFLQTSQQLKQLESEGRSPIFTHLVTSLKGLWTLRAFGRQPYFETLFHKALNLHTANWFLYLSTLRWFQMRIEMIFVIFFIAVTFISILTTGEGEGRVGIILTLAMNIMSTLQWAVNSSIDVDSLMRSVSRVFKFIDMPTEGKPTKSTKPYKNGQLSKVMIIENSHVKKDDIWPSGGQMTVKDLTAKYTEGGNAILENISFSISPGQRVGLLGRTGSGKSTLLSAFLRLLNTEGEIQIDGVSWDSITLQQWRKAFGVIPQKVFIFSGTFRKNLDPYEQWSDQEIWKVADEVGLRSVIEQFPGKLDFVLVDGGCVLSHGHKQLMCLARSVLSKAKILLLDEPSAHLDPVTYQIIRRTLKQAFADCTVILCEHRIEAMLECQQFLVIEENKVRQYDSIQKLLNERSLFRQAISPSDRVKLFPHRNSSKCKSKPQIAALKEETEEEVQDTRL
Method: as §2
as §3, with “determined. The radioactivity present in the hemolysis tubes is counted as counts per minute (cpm) using a gamma counter (Cobra II, Packard).” for “determined.”

[7] = biological target: T3, wild-type CFTR (CFTR-WT) (Homo sapiens, UniProt P13569); test: iodide efflux, activation of the CFTR chloride channel in CHO cells; format: cell-based
T3 construct: expressed in transfected cells; host or cells: CHO (Chinese Hamster Ovary) cells
T3 sequence (P13569 whole entry): as the sequence (P13569 whole entry G551D) above, with D551G counted along it
Method: CHO-WT cells: The CHO (Chinese Hamster Ovary) cells are fibroblasts which have been transfected with the wild-type CFTR (CFTR-WT) gene. These cells will therefore overexpress the CFTR protein.
the measurements of chloride ion transport in the cells was carried out with the aid of the radioactive iodide efflux technique (Becq et al., 1999; Dormer et al., 2001). The tracer (^125I) is incorporated into the intracellular medium. Next, the quantity of radiotracer which leaves the cell is counted after the addition of various pharmacological agents. […]
as §3, with “determined. The radioactivity present in the hemolysis tubes is counted as counts per minute (cpm) using a gamma counter (Cobra II, Packard).” for “determined.”

SMILES: C[C@H]1CCC/C=C/[C@@H]2C[C@H](O)C[C@H]2[C@H](O)/C=C/C(=O)O1 [Brefeldin A]
competition with aloisine A: effect on the aloisine A-induced retargeting of delF508-CFTR ([1]; iodide efflux, CF15 cells): inhibition

SMILES: COc1ccc(Cl)cc1C(=O)NCCc1ccc(S(=O)(=O)NC(=O)NC2CCCCC2)cc1 [glibenclamide]
effect of known CFTR inhibitors on delF508 transport after treatment with aloisine A [1]: blocked

Second part, led by results:

effect of known CFTR inhibitors on delF508 transport after treatment with aloisine A [1]: insensitive
SMILES: O=S(=O)(O)c1cc(N=C=S)ccc1C=Cc1ccc(N=C=S)cc1S(=O)(=O)O [DIDS]

effect of known CFTR inhibitors on delF508 transport after treatment with aloisine A [1]: blocked
SMILES: O=C(O)c1ccccc1Nc1ccccc1 [DPC]

EC50 [2]: 110 nM
delF508-CFTR activity after treatment ([1]; CF15 cells, 100 μM, 2 h treatment, 37° C.): restored
EC50 ([1]; CF15 cells, 2 h treatment, then 10 μM forskolin+30 μM genistein, read-out: EC50 of retargeting of delF508-CFTR (restored iodide efflux)): 50000 nM and 49000 nM
EC50 [6]: 1.5 nM
EC50 [7]: 152 nM
SMILES: CCCCc1c(-c2ccc(O)cc2)[nH]c2nccnc12 [aloisine A]
cell viability (MTT) ([3]; 2 h incubation): viable for all the concentrations
cell viability (MTT) ([3]; 24 h incubation): viable for all the concentrations
toxicity on animals [4]: very low toxicity
localization of the delF508 protein [5]: redirect the delF508 protein to the membrane
